Data as given in patent publication US11753418B2, “Compounds for the modulation of Myc activity” (Syros Pharmaceuticals, Inc., priority 2015, dated 2023).
Where a name gives a salt, the structure may show the parent alone.

What was measured:
[1] = system: human small lung cancer cell line H2171; experiment: Cell Viability Assay (ATPlite); assay type: cell-based; details: NCI-H2171, 72 h, H2171 cells, incubated for three days, ATPlite readout
Description: Compounds of the invention were assayed for cell viability using the human small lung cancer cell line H2171 as described in the following protocol. Cells were counted and adjusted to 20,000 cells/mL. Using a Biotek EL406, 50 μL of cells in media were distributed into 384 well white plates from Thermo. Immediately after plating, compound in DMSO was distributed to plates. Compounds were added to plates using a 50 nL 384 well pin transfer manifold on a Janus workstation. Stocks were arrayed in 10 point dose response in DMSO stock in 384 well Greiner compound plates. After the addition of compounds, plates were incubated for three days in a 37° C. incubator. Cell viability was read out using ATPlite from Perkin Elmer. Lyophilized powder was resuspended in lysis buffer and diluted 1:2 with deionized water. 25 μL of this solution was added to each well using the Biotek liquid handler. Plates were incubated for 15 minutes at room temperature before signal was read on an Envision Plate Reader. The data from this assay are summarized in Table 3 below (H2171 activity).

c-Myc/Max/Ebox DNA = molecular target: T1, c-Myc/Max/Ebox DNA (Homo sapiens, UniProt P01106); experiment: c-Myc/Max/Ebox DNA AlphaScreen Assay; assay type: binding; details: free c-Myc 20 nM, his6-Max 5 nM, biotinylated Ebox oligo 10 nM, 2 hour incubation
T1 construct: his6 (cleaved yes)
T1 sequence (P01106 whole entry): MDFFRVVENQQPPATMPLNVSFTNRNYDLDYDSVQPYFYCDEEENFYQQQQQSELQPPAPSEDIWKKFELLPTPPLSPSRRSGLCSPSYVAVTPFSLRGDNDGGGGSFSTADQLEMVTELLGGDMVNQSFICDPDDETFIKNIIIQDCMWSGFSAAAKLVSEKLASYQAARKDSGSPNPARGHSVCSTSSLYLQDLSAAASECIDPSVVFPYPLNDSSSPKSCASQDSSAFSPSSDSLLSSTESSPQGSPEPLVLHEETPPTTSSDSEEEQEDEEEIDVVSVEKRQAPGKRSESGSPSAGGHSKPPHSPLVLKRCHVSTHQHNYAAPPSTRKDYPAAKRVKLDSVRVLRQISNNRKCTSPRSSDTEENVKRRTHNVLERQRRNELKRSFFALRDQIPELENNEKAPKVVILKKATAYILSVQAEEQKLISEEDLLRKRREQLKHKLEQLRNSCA
Description: Compounds of the invention were assayed for c-Myc/Max/EBox activity as described in the following protocol. Human his6-c-Myc and his6-Max were used with biotinylated DNA containing a single Ebox sequence (biotin[…]) purchased from MWG Operon. Free c-Myc was generated from his6-c-Myc through thrombin cleavage of the his6 tag. For 384-well plate assays, 10 μL of a 2× solution of free c-Myc (20 nM final), Ni^2+ coated Acceptor Beads (25 μg/ml final), and biotinylated Ebox oligo (10 nM final) were added to 384-well plates with a Biotek EL406 liquid handler. 50 nL of compounds from stock plates were added by pin transfer using a Janus Workstation (PerkinElmer), allowing the compounds to interact with c-Myc prior to c-Myc binding with Max. In the current assay, DMSO was not allowed to exceed 2% v/v of the assay. 10 μl of 2× master mix containing streptavidin-coated donor beads (25 μg/ml final) and his6-Max (5 nM) were added. AlphaScreen measurements were performed on an Envision plate reader (PerkinElmer) utilizing the manufacturer's protocol.
Both master mixes were made in room temperature assay buffer (50 mM HEPES, 150 mM NaCl, 0.2% w/v BSA, 0.02% w/v Tween20, 40 μg/ml glycogen, 500 μM DTT, pH 8.0, wherein both DTT and glycogen were added fresh). Alpha beads were added to respective master solutions. All subsequent steps were performed in low light conditions. Solution 1: 2× solution of components with final concentrations of c-Myc Ni-coated Acceptor Beads (25 μg/ml), and biotinylated Ebox oligo (10 nM). Solution 2: 2× solution of streptavidin-coated donor beads (25 μg/ml final) and his6-Max […]. Solution 1 was added to 384-well plate (AlphaPlate-384, PerkinElmer) with Biotek EL406 liquid handler and the plates were centrifuged very briefly. 50 nL of compounds from stock plates were added by pin transfer using a Janus Workstation. Solution 2 (10 μL) was added with the liquid handler. Plates were sealed with foil to block light exposure and prevent evaporation. Plates were very briefly centrifuged followed by 2 hour incubation. AlphaScreen measurements were performed on an Envision 2104 utilizing the manufacturer's protocol. Excitation was at 680 nm for donor bead release of singlet oxygen and emission was read with a bandpass filter from 520-620 nm. Glycogen: Roche Diagnostics #10901393001. Plate 1536: Perkin Elmer, 6004350. Plate 384: Perkin Elmer, 6005350. Nickel-His Alpha Beads: 6760619R. The data from this assay are summarized in Table 3 below (Myc/Max/DNA Activity).

SMILES | IC50 [1] [nM] | IC50 (c-Myc/Max/Ebox DNA) [nM]
CC(=O)Nc1sc2c(c1-c1nc3cnccc3s1)C[C@@H](C)N[C@@H]2C (single isomer, unassigned) [Compound 110] | < 500 | < 500
CC(=O)Nc1sc2c(c1-c1nc3cnccc3s1)C[C@H](C)N[C@H]2C (single isomer, unassigned) [Compound 111] | < 500 | < 500
CCN1C(C)c2sc(NC(C)=O)c(-c3nc4c(C(F)F)nccc4s3)c2C[C@H]1C (stereo in doubt) [Compound 235, N-((5R,7R)-3-(4-(difluoromethyl)thiazolo[4,5-c]pyridin-2-yl)-6-ethyl-5,7-dimethyl-4,5,6,7-tetrahydrothieno[2,3-c]pyridin-2-yl)acetamide] | < 500 | < 500
CC(=O)Nc1sc2c(c1-c1nc3cnccc3s1)CCNC2 [Compound 100, N-(3-(Thiazolo[4,5-c]pyridin-2-yl)-4,5,6,7-tetrahydrothieno[2,3-c]pyridin-2-yl)acetamide] | 500 to 5000 | < 500
CC(=O)Nc1sc2c(c1-c1nc3cccnc3s1)CCNC2 [Compound 101, N-(3-(thiazolo[5,4-b]pyridin-2-yl)-4,5,6,7-tetrahydrothieno[2,3-c]pyridin-2-yl)acetamide] | < 500 | 500 to 5000
CCC(C)NCCC(=O)Nc1sc2c(c1-c1nc3cnccc3s1)CCNC2 (stereo not shown) [Compound 103, 3-(sec-butylamino)-N-(3-(thiazolo[4,5-c]pyridin-2-yl)-4,5,6,7-tetrahydrothieno[2,3-c]pyridin-2-yl)propanamide] | < 500 | < 500
CC(=O)Nc1sc2c(c1-c1nc3cnccc3s1)CCN(C(C)CN1CCOCC1)C2 (stereo not shown) [Compound 105, N-(6-(1-morpholinopropan-2-yl)-3-(thiazolo[4,5-c]pyridin-2-yl)-4,5,6,7-tetrahydrothieno[2,3-c]pyridin-2-yl)acetamide] | 500 to 5000 | 500 to 5000
CC(=O)Nc1sc2c(c1-c1nc3c(C(F)F)nccc3s1)CCNC2 [Compound 106, N-[3-[4-(difluoromethyl)thiazolo[4,5-c]pyridin-2-yl]-4,5,6,7-tetrahydrothieno[2,3-c]pyridin-2-yl]acetamide] | < 500 | < 500
CC(=O)Nc1sc2c(c1-c1nc3cnccc3s1)C(C)CN(C(C)C)C2 (stereo not shown) [Compound 107, N-(6-isopropyl-4-methyl-3-(thiazolo[4,5-c]pyridin-2-yl)-4,5,6,7-tetrahydrothieno[2,3-c]pyridin-2-yl)acetamide] | 500 to 5000 | 500 to 5000
CC(=O)Nc1sc2c(c1-c1nc3c[n+]([O-])ccc3s1)CCNC2 [Compound 108, 2-(2-acetamido-4,5,6,7-tetrahydrothieno[2,3-c]pyridin-3-yl)thiazolo[4,5-c]pyridine 5-oxide] | 500 to 5000 | 500 to 5000
CC(=O)Nc1sc2c(c1-c1nc3cnccc3s1)CCC(N)C2 (stereo not shown) [Compound 113, N-(6-amino-3-(thiazolo[4,5-c]pyridin-2-yl)-4,5,6,7-tetrahydrobenzo[b]thiophen-2-yl)acetamide] | < 500 | 500 to 5000
CC(=O)Nc1sc2c(c1-c1nc3cnccc3s1)CCN(C)C2 [Compound 114, N-(6-methyl-3-(thiazolo[4,5-c]pyridin-2-yl)-4,5,6,7-tetrahydrothieno[2,3-c]pyridin-2-yl)acetamide] | 500 to 5000 | 500 to 5000
CCC(C)NCCC(=O)Nc1sc2c(c1-c1nc3cnccc3s1)CCN(C(C)C)C2 (stereo not shown) [Compound 116, 3-(sec-butylamino)-N-(6-isopropyl-3-(thiazolo[4,5-c]pyridin-2-yl)-4,5,6,7-tetrahydrothieno[2,3-c]pyridin-2-yl)propanamide dihydrochloride] | < 500 | < 500
CCN1C(C)Cc2c(sc(NC(C)=O)c2-c2nc3cnccc3s2)C1C (stereo not shown) [Compound 117, N-(6-ethyl-5,7-dimethyl-3-(thiazolo[4,5-c]pyridin-2-yl)-4,5,6,7-tetrahydrothieno[2,3-c]pyridin-2-yl)acetamide] | 500 to 5000 | 500 to 5000
CC(=O)Nc1sc2c(c1-c1nc3c(C)nccc3s1)CCNC2 [Compound 118, N-(3-(4-methylthiazolo[4,5-c]pyridin-2-yl)-4,5,6,7-tetrahydrothieno[2,3-c]pyridin-2-yl)acetamide] | < 500 | < 500
CCN1[C@H](C)Cc2c(sc(NC(C)=O)c2-c2nc3cnccc3s2)[C@H]1C [Compound 119, N-((5R,7R)-6-ethyl-5,7-dimethyl-3-(thiazolo[4,5-c]pyridin-2-yl)-4,5,6,7-tetrahydrothieno[2,3-c]pyridin-2-yl)acetamide] | < 500 | < 500
CC[C@H](C)NCCC(=O)Nc1sc2c(c1-c1nc3cnccc3s1)CCNC2 [Compound 122, (S)-3-(sec-butylamino)-N-(3-(thiazolo[4,5-c]pyridin-2-yl)-4,5,6,7-tetrahydrothieno[2,3-c]pyridin-2-yl)propanamide] | < 500 | < 500

SMILES | IC50 [1] [nM] | IC50 (c-Myc/Max/Ebox DNA) [nM]
COCC(NCCC(=O)Nc1sc2c(c1-c1nc3cnccc3s1)CCNC2)C(C)C (stereo not shown) [Compound 134] | 500 to 5000 | < 500
O=C(CCN[C@@H]1C[C@H]2CNC[C@H]2C1)Nc1sc2c(c1-c1nc3cnccc3s1)CCNC2 [Compound 153] | < 500 | < 500
O=C(CCN1CC(C(=O)O)C1)Nc1sc2c(c1-c1nc3cnccc3s1)CCNC2 [Compound 172] | < 500 | < 500
O=C(CCN[C@H]1CC[C@H](O)C1)Nc1sc2c(c1-c1nc3cnccc3s1)CCNC2 [Compound 176] | < 500 | < 500
O=C(CCN[C@H]1CC[C@]2(CCC(=O)N2)CC1)Nc1sc2c(c1-c1nc3cnccc3s1)CCNC2 [Compound 177] | < 500 | < 500
O=C(CCN1CCCCC12CNC2)Nc1sc2c(c1-c1nc3cnccc3s1)CCNC2 [Compound 183] | < 500 | 500 to 5000
CN(CCCn1ccnc1)CCC(=O)Nc1sc2c(c1-c1nc3cnccc3s1)CCNC2 [Compound 190] | < 500 | < 500
Cn1cncc1CNCCC(=O)Nc1sc2c(c1-c1nc3cnccc3s1)CCNC2 [Compound 203] | 500 to 5000 | < 500
O=C(CCN1CCCC12CNC2)Nc1sc2c(c1-c1nc3cnccc3s1)CCNC2 [Compound 206] | 500 to 5000 | < 500
COCCNCCC(=O)Nc1sc2c(c1-c1nc3cnccc3s1)CCNC2 [Compound 216, 3-((2-methoxyethyl)amino)-N-(3-(thiazolo[4,5-c]pyridin-2-yl)-4,5,6,7-tetrahydrothieno[2,3-c]pyridin-2-yl)propanamide] | < 500 | < 500
CC[C@@H](C)NCCC(=O)Nc1sc2c(c1-c1nc3cnccc3s1)CCNC2 [Compound 217, (R)-3-(sec-butylamino)-N-(3-(thiazolo[4,5-c]pyridin-2-yl)-4,5,6,7-tetrahydrothieno[2,3-c]pyridin-2-yl)propanamide] | < 500 | < 500
CCN1CCc2c(sc(NC(C)=O)c2-c2nc3cnccc3s2)[C@H]1C [Compound 229, (R)—N-(6-ethyl-7-methyl-3-(thiazolo[4,5-c]pyridin-2-yl)-4,5,6,7-tetrahydrothieno[2,3-c]pyridin-2-yl)acetamide] |  | 5000 to 25000
CC(=O)Nc1sc2c(c1-c1nc3cnccc3s1)C[C@H](C)N[C@@H]2C [Compound 236] | < 500 | 
COCCNCCC(=O)Nc1sc2c(c1-c1nc3cncnc3s1)CCNC2 [Compound 252] |  | > 25000
CCN1[C@H](C)c2sc(NC(C)=O)c(-c3nc4cnccc4s3)c2C[C@@H]1C [Compound 253] |  | < 500
CCN1[C@H](C)Cc2c(sc(NC(C)=O)c2-c2nc3cnccc3s2)[C@@H]1C [Compound 254] |  | > 25000
